Literature values, collected in patent publication US11013777B2, “Aronia extract for enhancing reaction time and attention” (BioActor BV, priority 2017, dated 2021).

In the case of anthocyanins, the “absorption in the small intestine” value (in vivo) is listed as “poor absorption”, the “appearance in plasma post-ingestion” value (in vivo) is listed as “Thirty minutes post-ingestion, anthocyanins can be measured in plasma” and the “glucuronidated share of the total anthocyanins in plasma and urine” value (in vivo) is listed as “approximately 55%”.

In the case of `OC[C@H]1O[C@@H](Oc2cc3c(O)cc(O)cc3[o+]c2-c2ccc(O)c(O)c2)[C@H](O)[C@@H](O)[C@H]1O` [cyanidin-3-galactoside], the “share of the total metabolites found in plasma” value (humans, plasma) is listed as “around 65%”.
